Earlier results as cited in patent US7388012B2, “(Hydrazido)(amino)thiophene compounds” (OSI Pharmaceuticals, Inc., priority 2004, dated 2008).
Where a name gives a salt, the structure may show the parent alone.

Tests used:
[1] = test system: MO7e human leukemia cells
[2] = test system: MO7e human leukemia cells; remark: listed apart in the source

For Cc1ccc(NC(=O)c2ccc(CN3CCN(C)CC3)cc2)cc1Nc1nccc(-c2cccnc2)n1 [Gleevec, imatinib mesylate], the “GM-CSF stimulated growth of MO7e human leukemia cells” value [1] is given as “not affected”, the “Kit ligand-stimulated growth of MO7e human leukemia cells” value ([2]; Kit ligand-stimulated) is given as “inhibited” and the “apoptosis of MO7e human leukemia cells” value ([2]; Kit ligand-stimulated conditions) is given as “induces apoptosis”.
